Reference: paper PMC6508865, “Dynamics of thymol dietary supplementation in quail (Coturnix japonica): Linking bioavailability, effects on egg yolk total fatty acids and performance traits” (PLoS ONE, 2019)
Like-named read-outs stand apart in the source and are kept apart here.

Tests used:
[1] = parameters: method as in ref 14 = [14]; 14 Botsoglou N , Yannakopoulos AL , Fletouris DJ , Tserveni-Goussi AS , Fortomaris PD . Effect of dietary thyme on oxidative stability of egg yolk . J Agric Food Chem . 1997; 45 ( 10 ): 3711 – 6 .; conditions: cited from earlier work
quail = tested on: quail; parameters: method as in PMID 28474397; conditions: THY6, 6.25 g of THY per kg of feed; cited from earlier work
[2] = tested on: female Japanese quail (Coturnix japonica); test: Liver histological analysis (histopathological index); format: in vivo
Text: (§1) A total of 50 eighty-five days-old female quail of homogeneous body weights (251 ± 1 g; Mean ± SE) and in their egg-laying peak were selected from an initial group of 96 female individuals. All birds continued receiving a basal diet between 85 and 100 days of age and all variables (see below for details) were registered along this period (Pre-supplementation period, Fig 1). From 100 to 128 days of age (S period, Fig 1), females were randomly assigned to either a chronic dietary supplementation with one of 3 THY doses (THY2, THY4 and THY6; 10 females each) or to one of 2 control groups (basal diet, BASAL, and basal diet with vehicle solution, VEHICLE; 10 females each). Once finished the S period, half of the quail were slaughtered for histological analysis (n = 25; Slaughter 1, Fig 1) and the other half were subjected to a pS period of 21 days, during which all females received the BASAL diet (pS, Fig 1). After this period, the remaining 25 animals were also slaughtered for histological analysis (Slaughter 2, Fig 1). In this way, we assessed whether THY induced changes in variables indicative of tissue damage and if so, whether the potential damages could reverse after 3 weeks of supplement withdrawal.
At each slaughter point birds were euthanized by decapitation and livers were removed and stored in buffered formalin at 10%, processed routinely and stained with hematoxylin and eosin (H&E) and periodic acid-Schiff (PAS). Each slide was examined blinded, with a light microscope (Olympus X-785) and photographed with a digital camera (Moticam Camera 2300, 3 Megapixels). To evaluate histological alterations of liver, tissue was divided into 8 random equal areas to ensure there was no overlapping of the studied areas. For each area, the extension and number of each alteration were recorded with a microscope at 40X magnitude. Histopathological index of liver (HIliv) were estimated using a semi-quantitative protocol following, modified by our colleagues. Briefly, alterations were classified into four major reaction patterns each one of those including alterations that concern to different functional units of the liver or to the whole organ: RP1, circulatory disturbances (dilatation of sinusoids, vascular congestion, hemorrhage); RP2, regressive changes (steatosis or fatty degeneration, hydropic degeneration, nuclear alteration, fibrosis, necrosis); RP3, progressive changes (oval cells, cell hypertrophy and hyperplasia); and RP4, liver inflammation (leukocyte infiltration). Then, for each RP, an index was calculated based on two factors: the pathological importance of the lesions (importance factor, W) (range 1–3) and the extension of pathological change (score value, a) from 0 (unchanged) to 8 (extreme occurrence). Finally, a total liver histopathological index (HIliv) was calculated by adding the single RP liver indices of each individual quail. A greater value of (HIliv) reflects the most severely affected individual.

[3] = Thymol quantification in quail droppings (HS-SPME/GC-MS) during chronic dietary supplementation; format: in vivo, Coturnix japonica; conditions: for concentration at 2 days / concentration at 9 days / concentration at 16 days / concentration at 26 days: female, Japanese quail (Coturnix japonica), droppings, oral, read-out: THY concentration in droppings
Text: as §1
To assess changes in egg yolk total FA composition, egg physical characteristics, laying rate, body weight, feed intake and general welfare, during the S and pS periods, five sampling points were defined (Sample points, Fig 1): one initial sample point (at 0 days of S); three sample points during the S period (at 7, 14 and 28 days of S); and one sample point at the end of the pS period (21 days of pS). It should be noted that for determinations of THY concentration, eggs and quail droppings were collected offset from the other variables measured by 2 days, thus were collected on days 2, 9, 16, and 26 days of S, and 17 days of pS, respectively.
Thymol was commercially obtained from Sigma-Aldrich (SAFC®, ⩾99%; FCC, Saint Louis, MO, USA). Supplemented quail were provided 2, 4 or 6.25 g of THY per kg of feed. For this end, THY was prepared in a 2.4, 4.8 and 7.5% w/v ethanolic solution and uniformly sprayed on fresh feed. The feed was prepared and administrated daily, to minimize THY volatilization from feed before its consumption by females. The doses were selected considering two factors. The first, the concentration range for which the transfer of THY to the chicken and/or quail egg has been established. Second, the concentrations of THY supplementation that have shown biological effects. […] In this context, THY4 is and intermediate dose between the last two. Nutrient and FA compositions of the diets supplied were identical between each other and are reported in S1, S2 and S3 Tables, and are in accordance with the National Research Council recommendation.
Egg yolks and droppings of each female were obtained at each sample point (Sample points, Fig 1) and THY concentration was immediately measured by head space-solid phase microextraction followed by gas chromatography-mass spectrometry (HS-SPME/GC-MS) according to Fernandez et al.. SPME was performed with a manual holder with 100 um polydimethylsiloxane (PDMS) fiber. An aliquot of egg yolk (3 g), droppings (5 g) or feed (5 g) was put in a sealed 20 mL glass vial, spiked at the corresponding level with the standard m-cresol (Sigma-Aldrich; ≥ 99% (GC); Saint Louis, MO, USA) stock solution, and vortexed for 5 min. The vials were placed in a water bath and the PDMS fiber was exposed to the headspace for 30 min at 60°C and 5 min at 40°C for egg yolk and droppings or feed, respectively. The fiber was then inserted directly into the GC injector for desorption at 250°C for 10 min in splitless mode. Chromatography analysis was carried out in a Perkin Elmer Clarus 600 equipped with a PSSI injector and a quadrupole MS detector (Perkin Elmer, USA). Turbo Mass 5.4.2 software was used to control and acquire data from GC–MS. […]

[4] = overall mean over control and 2, 4, 6.25 g thymol/kg feed diets and two slaughter batches
[5] = overall mean over control and 2, 4, 6.25 g thymol/kg feed diets and two slaughter batches, no effect of diet
[6] = THY2, 2 g of thymol/kg of feed, pS, 17 days of supplement withdrawal
[7] = THY4, 4 g of thymol/kg of feed, pS, 17 days of supplement withdrawal
[8] = THY6, 6.25 g of thymol/kg of feed, pS, 17 days of supplement withdrawal

Cc1ccc(C(C)C)c(O)c1 [THY, 2 isopropyl-5-methylphenol]
concentration of THY needed to be added to a control yolk for antioxidant activity equivalent to a yolk from a thyme treated hen [1]: 278 ug of THY/g of yolk | PUFA and SFA in yolk total fatty acids and triglycerides of the quail fertile egg (quail): enhances PUFA deposition to the detriment of SFA | effect on histopathological features of the liver ([2]; 2, 4, 6.25 g of THY/kg feed, 28 days S and 21 days pS): did not affect | HILiv.Rp3 (liver histopathological index, progressive changes) [2, 4]: 0,80 | HILiv.Rp4 (liver histopathological index, inflammation) [2, 4]: 0,27 | HILiv (total liver histopathological index) [2, 5]: 22,58 | HILiv.Rp2 (liver histopathological index, regressive changes) [2, 5]: 16,80 | Percentage of THY transferred to droppings in relation to the amount ingested ([3]; THY2, 2 g of thymol/kg of feed, 2 days of S): 0.53% | Percentage of THY transferred to droppings in relation to the amount ingested ([3]; THY2, 2 g of thymol/kg of feed, 9 days of S): 2.33% | Percentage of THY transferred to droppings in relation to the amount ingested ([3]; THY2, 2 g of thymol/kg of feed, 16 days of S): 2.41% | Percentage of THY transferred to droppings in relation to the amount ingested ([3]; THY2, 2 g of thymol/kg of feed, 26 days of S): 3.47% | Percentage of THY transferred to droppings in relation to the amount ingested [3, 6]: 0.04% | THY concentration in droppings [3, 6]: 4.37 ng/g | Percentage of THY transferred to droppings in relation to the amount ingested ([3]; THY4, 4 g of thymol/kg of feed, 2 days of S): 0.25% | Percentage of THY transferred to droppings in relation to the amount ingested ([3]; THY4, 4 g of thymol/kg of feed, 9 days of S): 1.78% | Percentage of THY transferred to droppings in relation to the amount ingested ([3]; THY4, 4 g of thymol/kg of feed, 16 days of S): 1.91% | Percentage of THY transferred to droppings in relation to the amount ingested ([3]; THY4, 4 g of thymol/kg of feed, 26 days of S): 2.11% | Percentage of THY transferred to droppings in relation to the amount ingested [3, 7]: 0.12% | THY concentration in droppings [3, 7]: 30.58 ng/g | Percentage of THY transferred to droppings in relation to the amount ingested ([3]; THY6, 6.25 g of thymol/kg of feed, 2 days of S): 0.21% | Percentage of THY transferred to droppings in relation to the amount ingested ([3]; THY6, 6.25 g of thymol/kg of feed, 9 days of S): 1.33% | Percentage of THY transferred to droppings in relation to the amount ingested ([3]; THY6, 6.25 g of thymol/kg of feed, 16 days of S): 1.74% | Percentage of THY transferred to droppings in relation to the amount ingested ([3]; THY6, 6.25 g of thymol/kg of feed, 26 days of S): 1.57% | Percentage of THY transferred to droppings in relation to the amount ingested [3, 8]: 0.09% | THY concentration in droppings [3, 8]: 37.95 ng/g | THY transferred to the droppings, of the amount THY ingested ([3]; during the plateau, across THY2, THY4, THY6): 1.57–3.47% | concentration at 2 days ([3]; 2 g/kg of feed, THY2, 2 g of thymol/kg of feed, 2 days of S): 51.8 ng/g | concentration at 9 days ([3]; 2 g/kg of feed, THY2, 2 g of thymol/kg of feed, 9 days of S): 229 ng/g | concentration at 16 days ([3]; 2 g/kg of feed, THY2, 2 g of thymol/kg of feed, 16 days of S): 237 ng/g | concentration at 26 days ([3]; 2 g/kg of feed, THY2, 2 g of thymol/kg of feed, 26 days of S): 342 ng/g | concentration at 2 days ([3]; 4 g/kg of feed, THY4, 4 g of thymol/kg of feed, 2 days of S): 63.5 ng/g | concentration at 9 days ([3]; 4 g/kg of feed, THY4, 4 g of thymol/kg of feed, 9 days of S): 459 ng/g | concentration at 16 days ([3]; 4 g/kg of feed, THY4, 4 g of thymol/kg of feed, 16 days of S): 491 ng/g | concentration at 26 days ([3]; 4 g/kg of feed, THY4, 4 g of thymol/kg of feed, 26 days of S): 542 ng/g | concentration at 2 days ([3]; 6.25 g/kg of feed, THY6, 6.25 g of thymol/kg of feed, 2 days of S): 85 ng/g | concentration at 9 days ([3]; 6.25 g/kg of feed, THY6, 6.25 g of thymol/kg of feed, 9 days of S): 550 ng/g | concentration at 16 days ([3]; 6.25 g/kg of feed, THY6, 6.25 g of thymol/kg of feed, 16 days of S): 721 ng/g | concentration at 26 days ([3]; 6.25 g/kg of feed, THY6, 6.25 g of thymol/kg of feed, 26 days of S): 650 ng/g
